Measurements reported in US9253983B2, “Triazole compound and use thereof” (KUREHA CORPORATION, priority 2011, dated 2016).

Tests used:
[1] = system: Pseudocercoporella herpotrichoides; assay: Test 1 for antifungal effect, plate medium: P.h; type: cell-based; details: PDA plate medium
Protocol: (§1) Compound (1-1a) or Compound (1-2a) was dissolved in dimethyl sulfoxide, and the resulting solution was added to a PDA medium (potato dextrose-agar medium) at about 60° C. The medium and the solution were mixed thoroughly in a conical flask, poured into a petri dish, and allowed to solidify. In this way, a plate medium containing Compound (1-1a) or Compound (1-2a) at a certain concentration was prepared.
(§2) Meanwhile, test microorganisms cultured on a plate medium in advance were cut out with the use of a cork borer 4 mm in diameter, and were inoculated onto the compound-containing plate medium. After the inoculation, the microorganisms were cultured at their optimum growth temperatures (for example, refer to LIST OF CULTURES 1996 microorganisms 10th edition, Institute for Fermentation (foundation)) for 1 day to 7 days, and their growth was determined by measuring the diameter of their flora. The extent of growth of the microorganisms on the compound-containing plate medium was compared with that of microorganisms on a plate medium where no compound was added, and mycelial growth inhibition rate was calculated by the following equation: R=100(dc−dt)/dc where R is mycelial growth inhibition rate (%), dc is the flora diameter in untreated plate, and dt is the flora diameter in plate treated with the compound.
(§3) A larger antifungal index indicates a better antifungal effect.

rice Bakanae disease = assay: Efficacy of seed treatment on rice Bakanae disease; type: in vivo, Gibberella fujikuroi; details: rice seed treatment 80 g ai/100 kg seeds, 20 days after sowing
Protocol: A pot experiment was performed to evaluate the effectiveness of the seed treatment in controlling rice Bakanae disease. Compound (1-1a), which was dissolved in DMSO to make up such a concentration that the seeds would be treated in treatment amount of 80 g ai/100 kg seeds, was applied in a vial to seeds of a rice plant infected with rice Bakanae disease, and thereafter 16 rice plant seeds were sowed in a 50-cm^2 pot. The pot was kept in a greenhouse with water supplied to its bottom. 20 days after the sowing, examination was conducted on the percentage of seedlings infected with […]. Then, protective values were calculated as were in Experiment Example 4.

[2] = system: Erysiphe graminis f. sp tritici; assay: Controlling effect on wheat powdery mildew by foliage spray treatment (Tests 1 and 2); type: in vivo; details: foliage spray 12.5 mg/L, 1,000 L/ha
Source text: The suspension was sprayed at 1,000 L/ha to leaves of wheat plants (cultivar: NORIN No. 61) in their second leaf stage. The wheat plants had been grown in square plastic pots (6 cm×6 cm). After the suspension was left to dry, the plants were inoculated with Erysiphe graminis f. sp tritici taken from wheat plants infected with wheat powdery mildew, by sprinkling. 8 days and 11 days after the inoculation, the lesion degree of the wheat powdery mildew was examined in accordance with the criteria shown in Table 4. The protective values were found in the same way as in Experiment Example 2.
The suspension was sprayed at 1,000 L/ha to leaves of wheat plants (cultivar: NORIN No. 61) in their second leaf stage. The wheat plants had been grown in square plastic pots (6 cm×6 cm). After the leaves were air-dried, they were inoculated with Erysiphe graminis f. sp tritici taken from wheat plants infected with wheat powdery mildew, by sprinkling. 8 days after the inoculation, the lesion degree of the wheat powdery mildew was examined. The protective values were calculated as were in Experiment Example 1.

rice plant [3] = assay: Necrosis (adverse effects) of seed treatment on rice plant seeds; type: in vivo; details: treatment amount 80 g ai/100 kg seeds, 20 days after sowing
Protocol: A pot experiment was performed to evaluate necrosis (adverse effects) caused by the seed treatment. Compound (1-1a) and Compound (1-2a), each which was dissolved in DMSO to make up such a concentration that the seeds would be treated in treatment amount of 2 g to 200 g ai/100 kg seeds, were each applied to wheat seeds in a vial, and thereafter 8 wheat seeds were sowed in an 80-cm^2 pot. The pot was kept in a greenhouse with water supplied to its bottom. 20 days after the sowing, an extent of necrosis (percentage of necrotic surface area) of wheat was evaluated. A necrosis index was derived from the percentage of the necrotic surface area, based on the criteria shown by Table 13. In Table 13, a smaller necrosis index indicates a lesser adverse effect of necrosis caused by the treatment with the use of a plant disease controlling agent.
A pot experiment was performed to evaluate necrosis (adverse effects) caused by the seed treatment. Compound (1-1a), which was dissolved in DMSO to make up such a concentration that the seeds would be treated in treatment amount of 80 g ai/100 kg seeds, was applied to rice plant seeds in a vial, and thereafter 16 rice plant seeds were sowed in a 50-cm^2 pot. […] 20 days after the sowing, an extent of necrosis (percentage of necrotic surface area) of rice plant was evaluated. A necrosis index was calculated as was in Experiment Example 6.

Cercospora beticola = assay: Test 1 for antifungal effect, plate medium: C.b; type: cell-based; details: PDA plate medium
Protocol: as §1, §2, §3

Alternaria alternata = assay: Test 1 for antifungal effect, plate medium: A.m; type: cell-based; details: PDA plate medium
Protocol: as §1, §2, §3

rice plant [4] = assay: Growth inhibition (adverse effects) of seed treatment on rice plant seeds; type: in vivo; details: treatment amount 80 g ai/100 kg seeds, 20 days after sowing
Protocol: A pot experiment was performed to evaluate the growth inhibition (adverse effects) caused by the seed treatment. Compound (1-1a) and Compound (1-2a), each of which was dissolved in DMSO to make up such a concentration that the seeds would be treated in treatment amount of 2 g to 200 g ai/100 kg seeds, were each applied to wheat seeds in a vial, and thereafter 8 wheat seeds were sowed in an 80-cm^2 pot. The pot was kept in a greenhouse with water supplied to its bottom. 20 days after the sowing, a growth measure of wheat was evaluated. A growth inhibition index was calculated based on the criteria shown by Table 10. In Table 10, a smaller growth inhibition index indicates a lesser adverse effect of growth inhibition caused by the treatment with the use of a plant disease controlling agent.
A pot experiment was performed to evaluate the growth inhibition (adverse effects) caused by the seed treatment. Compound (1-1a), which was dissolved in DMSO to make up such a concentration that the seeds would be treated in treatment amount of 80 g ai/100 kg seeds, was applied to rice plant seeds in a vial, and thereafter 16 rice plant seeds were sowed in a 50-cm^2 pot. The pot was kept in a greenhouse with water supplied to its bottom. 20 days after the sowing, a growth measure of rice plant was evaluated. A growth inhibition index was calculated as was in Experiment Example 5.

Rhizoctonia solani = assay: Test 1 for antifungal effect, plate medium: R.s; type: cell-based; details: PDA plate medium
Protocol: as §1, §2, §3

Row | Structure (SMILES) | Antifungal index (mycelial growth inhibition rate) ([1]; 0.16 mg/L) | Antifungal index (mycelial growth inhibition rate) ([1]; 0.31 mg/L) | Antifungal index (mycelial growth inhibition rate) ([1]; 0.63 mg/L) | Antifungal index (mycelial growth inhibition rate) ([1]; 1.25 mg/L) | Antifungal index (mycelial growth inhibition rate) ([1]; 2.50 mg/L) | Protective value (%) (rice Bakanae disease) | Protective value (%) (8 days after treatment) [2] | Protective value (%) (11 days after treatment) [2] | Necrosis index (rice plant [3]) | Antifungal index (mycelial growth inhibition rate) (Cercospora beticola; 0.16 mg/L) | Antifungal index (mycelial growth inhibition rate) (Cercospora beticola; 0.31 mg/L) | Antifungal index (mycelial growth inhibition rate) (Cercospora beticola; 0.63 mg/L) | Antifungal index (mycelial growth inhibition rate) (Cercospora beticola; 1.25 mg/L) | Antifungal index (mycelial growth inhibition rate) (Cercospora beticola; 2.50 mg/L) | Antifungal index (mycelial growth inhibition rate) (Alternaria alternata; 0.16 mg/L) | Antifungal index (mycelial growth inhibition rate) (Alternaria alternata; 0.31 mg/L) | Antifungal index (mycelial growth inhibition rate) (Alternaria alternata; 0.63 mg/L) | Antifungal index (mycelial growth inhibition rate) (Alternaria alternata; 1.25 mg/L) | Antifungal index (mycelial growth inhibition rate) (Alternaria alternata; 2.50 mg/L) | Growth inhibition index (rice plant [4]) | further results
1 | CC1(CCl)CCC(Cc2ccc(Cl)cc2)C1(O)Cn1cncn1 (single isomer, unassigned) [Compound (1-1a), (1,2-cis, 1,5-cis)-5-(4-chlorobenzyl)-2-chloromethyl-2-methyl-1-(1H-1,2,4-triazole-1-ylmethyl)cyclopentanol] | 1 (Less than 60%) | 5 (90% or greater) | 5 (90% or greater) | 5 (90% or greater) | 5 (90% or greater) | 100 | 96 | 84 | 0 (Less than 1%) | 4 (Less than 90% but not less than 80%) | 5 (90% or greater) | 5 (90% or greater) | 5 (90% or greater) | 5 (90% or greater) | 1 (Less than 60%) | 4 (Less than 90% but not less than 80%) | 4 (Less than 90% but not less than 80%) | 5 (90% or greater) | 5 (90% or greater) | 0 (50% or more) | Antifungal index (mycelial growth inhibition rate) (Rhizoctonia solani; 0.16 mg/L): 2 (Less than 70% but not less than 60%); Antifungal index (mycelial growth inhibition rate) (Rhizoctonia solani; 0.31 mg/L): 2 (Less than 70% but not less than 60%); Antifungal index (mycelial growth inhibition rate) (Rhizoctonia solani; 0.63 mg/L): 2 (Less than 70% but not less than 60%); Antifungal index (mycelial growth inhibition rate) (Rhizoctonia solani; 1.25 mg/L): 2 (Less than 70% but not less than 60%); Antifungal index (mycelial growth inhibition rate) (Rhizoctonia solani; 2.50 mg/L): 3 (Less than 80% but not less than 70%)
2 | CC1(CCl)CCC(Cc2ccc(Cl)cc2)C1(O)Cn1cncn1 (single isomer, unassigned) [Compound (1-1b), (1,2-cis, 1,5-cis)-5-(4-chlorobenzyl)-2-chloromethyl-2-methyl-1-(1H-1,2,4-triazole-1-ylmethyl)cyclopentanol] | 1 (Less than 60%) | 1 (Less than 60%) | 2 (Less than 70% but not less than 60%) | 3 (Less than 80% but not less than 70%) | 4 (Less than 90% but not less than 80%) | 66 | 71 | 58 | 2 (Less than 20% but not less than 5%) | 3 (Less than 80% but not less than 70%) | 4 (Less than 90% but not less than 80%) | 5 (90% or greater) | 5 (90% or greater) | 5 (90% or greater) | 1 (Less than 60%) | 3 (Less than 80% but not less than 70%) | 4 (Less than 90% but not less than 80%) | 4 (Less than 90% but not less than 80%) | 5 (90% or greater) | 4 (Less than 20% but 10% or more) | Antifungal index (mycelial growth inhibition rate) (Rhizoctonia solani; 0.16 mg/L): 1 (Less than 60%); Antifungal index (mycelial growth inhibition rate) (Rhizoctonia solani; 0.31 mg/L): 1 (Less than 60%); Antifungal index (mycelial growth inhibition rate) (Rhizoctonia solani; 0.63 mg/L): 2 (Less than 70% but not less than 60%); Antifungal index (mycelial growth inhibition rate) (Rhizoctonia solani; 1.25 mg/L): 2 (Less than 70% but not less than 60%); Antifungal index (mycelial growth inhibition rate) (Rhizoctonia solani; 2.50 mg/L): 2 (Less than 70% but not less than 60%)
